According to US20200016174A1, “PHARMACEUTICAL COMPOSITION” (MEXICHEM FLUOR S.A. DE C.V., priority 2016, published 2020):
Structures can show the parent of a compound that is named as a salt.

Legend:
Type in all cases: physicochemical
[1] = In vitro aerosolization performance (Next Generation Impactor) of beclomethasone dipropionate / formoterol fumarate dihydrate combination MDI formulations; conditions: after 1 month at ambient conditions, NGI 30 L/min
[2] = In vitro aerosolization performance (Next Generation Impactor) of beclomethasone dipropionate MDI formulations in HFA-152a with varying ethanol and glycerol; conditions: immediately after preparation
Procedure: A number of experiments were conducted to investigate the effects of glycerol on the in vitro aerosolization performance of drug formulations of beclomethasone dipropionate delivered from a metered dose inhaler (MDI) using HFA-152a as the propellant.
Pharmaceutical formulations of beclomethasone dipropionate were prepared in HFA-152a (Mexichem, UK). […] Anhydrous ethanol in an amount of 5, 10 or 15 weight % based on the total weight of the formulation and glycerol in an amount of 0, 1 or 2 weight %, again based on the total weight of the formulation, were then added to the canisters. […] The nominal dose of beclomethasone dipropionate was […].

[3] = Chemical stability (total impurities) of beclomethasone dipropionate formulations with varying ethanol and glycerol in uncoated aluminium cans; conditions: for % Total Imps T = 0 / % Total Imps T = 1 M @ 40° C./75% RH / % Total Imps T = 3 M @ 40° C./75% RH: uncoated aluminium cans
Procedure: A number of experiments were conducted to investigate the stability of beclomethasone dipropionate in HFA-134a and HFA-152a.
Anhydrous ethanol in an amount of 5, 10 or 15 weight % based on the total weight of the formulation and glycerol in an amount of 0, 1 or 2 weight %, again based on the total weight of the formulation, were then added to the canisters. […] The nominal dose of beclomethasone dipropionate was […].

[4] = combination formulation in HFA-134a and 10 weight % ethanol
[5] = combination formulation in HFA-152a and 10 weight % ethanol
[6] = 5 wt. % ethanol, 0 wt. % glycerol
[7] = 5 wt. % ethanol, 1 wt. % glycerol
[8] = 5 wt. % ethanol, 2 wt. % glycerol
[9] = 10 wt. % ethanol, 0 wt. % glycerol
[10] = 10 wt. % ethanol, 1 wt. % glycerol
[11] = 10 wt. % ethanol, 2 wt. % glycerol
[12] = 15 wt. % ethanol, 0 wt. % glycerol
[13] = 15 wt. % ethanol, 1 wt. % glycerol
[14] = 15 wt. % ethanol, 2 wt. % glycerol
[15] = HFA-134a, 5 wt. % ethanol, 0 wt. % glycerol
[16] = HFA-134a, 5 wt. % ethanol, 1 wt. % glycerol
[17] = HFA-134a, 5 wt. % ethanol, 2 wt. % glycerol
[18] = HFA-134a, 10 wt. % ethanol, 0 wt. % glycerol
[19] = HFA-134a, 10 wt. % ethanol, 1 wt. % glycerol
[20] = HFA-134a, 10 wt. % ethanol, 2 wt. % glycerol
[21] = HFA-134a, 15 wt. % ethanol, 0 wt. % glycerol
[22] = HFA-134a, 15 wt. % ethanol, 1 wt. % glycerol
[23] = HFA-134a, 15 wt. % ethanol, 2 wt. % glycerol
[24] = HFA-152a, 5 wt. % ethanol, 0 wt. % glycerol
[25] = HFA-152a, 5 wt. % ethanol, 1 wt. % glycerol
[26] = HFA-152a, 5 wt. % ethanol, 2 wt. % glycerol
[27] = HFA-152a, 10 wt. % ethanol, 0 wt. % glycerol
[28] = HFA-152a, 10 wt. % ethanol, 1 wt. % glycerol
[29] = HFA-152a, 10 wt. % ethanol, 2 wt. % glycerol
[30] = HFA-152a, 15 wt. % ethanol, 0 wt. % glycerol
[31] = HFA-152a, 15 wt. % ethanol, 1 wt. % glycerol
[32] = HFA-152a, 15 wt. % ethanol, 2 wt. % glycerol

CCC(=O)OCC(=O)[C@@]1(OC(=O)CC)[C@@H](C)C[C@H]2[C@@H]3CCC4=CC(=O)C=C[C@]4(C)[C@@]3(Cl)[C@@H](O)C[C@@]21C [beclomethasone dipropionate]
FPFED % [1, 4]: 63.16%
Fine Particle Dose [1, 4]: 98.92 µg
MMAD ± GSD [1, 4]: 1.41 ± 1.95 μm
FPFED % [1, 5]: 55.67%
Fine Particle Dose [1, 5]: 105.11 µg
MMAD ± GSD [1, 5]: 1.57 ± 1.98 μm
FPFED [2, 6]: 65.17%
FPM [2, 6]: 114.36 µg
MMAD (μm) ± GSD [2, 6]: 1.27 ± 1.80 μm
FPFED [2, 7]: 67.97%
FPM [2, 7]: 123.94 µg
MMAD (μm) ± GSD [2, 7]: 1.55 ± 1.93 μm
FPFED [2, 8]: 65.69%
FPM [2, 8]: 120.25 µg
MMAD (μm) ± GSD [2, 8]: 1.62 ± 2.06 μm
FPFED [2, 9]: 59.47%
FPM [2, 9]: 117.15 µg
MMAD (μm) ± GSD [2, 9]: 1.33 ± 1.84 μm
FPFED [2, 10]: 58.64%
FPM [2, 10]: 116.83 µg
MMAD (μm) ± GSD [2, 10]: 2.09 ± 1.92 μm
FPFED [2, 11]: 55.76%
FPM [2, 11]: 104.23 µg
MMAD (μm) ± GSD [2, 11]: 2.19 ± 2.12 μm
FPFED [2, 12]: 50.99%
FPM [2, 12]: 102.86 µg
MMAD (μm) ± GSD [2, 12]: 1.42 ± 2.02 μm
FPFED [2, 13]: 48.85%
FPM [2, 13]: 96.11 µg
MMAD (μm) ± GSD [2, 13]: 2.29 ± 2.06 μm
FPFED [2, 14]: 43.57%
FPM [2, 14]: 83.04 µg
MMAD (μm) ± GSD [2, 14]: 2.59 ± 2.12 μm
% Total Imps T = 0 [3, 15]: 0.89%
% Total Imps T = 1 M @ 40° C./75% RH [3, 15]: 1.58%
% Total Imps T = 3 M @ 40° C./75% RH [3, 15]: 2.08%
% Total Imps T = 0 [3, 16]: 0.34%
% Total Imps T = 1 M @ 40° C./75% RH [3, 16]: 1.91%
% Total Imps T = 3 M @ 40° C./75% RH [3, 16]: 2.14%
% Total Imps T = 0 [3, 17]: 0.55%
% Total Imps T = 1 M @ 40° C./75% RH [3, 17]: 0.78%
% Total Imps T = 3 M @ 40° C./75% RH [3, 17]: 1.18%
% Total Imps T = 0 [3, 18]: 1.16%
% Total Imps T = 1 M @ 40° C./75% RH [3, 18]: 1.82%
% Total Imps T = 3 M @ 40° C./75% RH [3, 18]: 2.21%
% Total Imps T = 0 [3, 19]: 1.34%
% Total Imps T = 1 M @ 40° C./75% RH [3, 19]: 2.25%
% Total Imps T = 3 M @ 40° C./75% RH [3, 19]: 2.49%
% Total Imps T = 0 [3, 20]: 1.49%
% Total Imps T = 1 M @ 40° C./75% RH [3, 20]: 1.97%
% Total Imps T = 3 M @ 40° C./75% RH [3, 20]: 2.35%
% Total Imps T = 0 [3, 21]: 1.08%
% Total Imps T = 1 M @ 40° C./75% RH [3, 21]: 2.35%
% Total Imps T = 3 M @ 40° C./75% RH [3, 21]: 4.21%
% Total Imps T = 0 [3, 22]: 2.88%
% Total Imps T = 1 M @ 40° C./75% RH [3, 22]: 3.15%
% Total Imps T = 3 M @ 40° C./75% RH [3, 22]: 3.99%
% Total Imps T = 0 [3, 23]: 2.95%
% Total Imps T = 1 M @ 40° C./75% RH [3, 23]: 4.22%
% Total Imps T = 3 M @ 40° C./75% RH [3, 23]: 4.89%
% Total Imps T = 0 [3, 24]: 0.08%
% Total Imps T = 1 M @ 40° C./75% RH [3, 24]: 0.16%
% Total Imps T = 3 M @ 40° C./75% RH [3, 24]: 0.35%
% Total Imps T = 0 [3, 25]: 0.11%
% Total Imps T = 1 M @ 40° C./75% RH [3, 25]: 0.15%
% Total Imps T = 3 M @ 40° C./75% RH [3, 25]: 0.28%
% Total Imps T = 0 [3, 26]: 0.09%
% Total Imps T = 1 M @ 40° C./75% RH [3, 26]: 0.21%
% Total Imps T = 3 M @ 40° C./75% RH [3, 26]: 0.34%
% Total Imps T = 0 [3, 27]: 0.21%
% Total Imps T = 1 M @ 40° C./75% RH [3, 27]: 0.35%
% Total Imps T = 3 M @ 40° C./75% RH [3, 27]: 0.42%
% Total Imps T = 0 [3, 28]: 0.34%
% Total Imps T = 1 M @ 40° C./75% RH [3, 28]: 0.36%
% Total Imps T = 3 M @ 40° C./75% RH [3, 28]: 0.55%
% Total Imps T = 0 [3, 29]: 0.23%
% Total Imps T = 1 M @ 40° C./75% RH [3, 29]: 0.29%
% Total Imps T = 3 M @ 40° C./75% RH [3, 29]: 0.31%
% Total Imps T = 0 [3, 30]: 0.56%
% Total Imps T = 1 M @ 40° C./75% RH [3, 30]: 0.89%
% Total Imps T = 3 M @ 40° C./75% RH [3, 30]: 1.11%
% Total Imps T = 0 [3, 31]: 0.66%
% Total Imps T = 1 M @ 40° C./75% RH [3, 31]: 0.79%
% Total Imps T = 3 M @ 40° C./75% RH [3, 31]: 1.56%
% Total Imps T = 0 [3, 32]: 0.72%
% Total Imps T = 1 M @ 40° C./75% RH [3, 32]: 0.89%
% Total Imps T = 3 M @ 40° C./75% RH [3, 32]: 1.48%
stability with HFA-152a as propellant rather than HFA-134a ([3]; all investigated levels of ethanol and glycerol, comparison of Tables 10 and 11): significantly higher

COc1ccc(CC(C)NCC(O)c2ccc(O)c(NC=O)c2)cc1 (stereo not shown) [formoterol fumarate dihydrate]
FPFED % [1, 4]: 66.35%
Fine Particle Dose [1, 4]: 3.67 µg
MMAD ± GSD [1, 4]: 1.36 ± 2.00 μm
FPFED % [1, 5]: 60.01%
Fine Particle Dose [1, 5]: 3.57 µg
MMAD ± GSD [1, 5]: 1.51 ± 2.08 μm
